Values quoted from earlier work, collected in US20080260691A1 (priority 2004, published 2008).

How the values were obtained:
[1] = in vivo
[2] = not given; remark: listed apart in the source
[3] = all animal species exposed

## N[C@@H](CCC(=O)O)C(=O)O [Glu]
other
  in vitro hydrolysis t½ rat hepatic microsomes: 30 min

## NCCCC[C@H](N)C(=O)O [Lys]
other
  in vitro hydrolysis t½ rat hepatic microsomes: 14 min

## N[C@@H](Cc1ccccc1)C(=O)O [Phe]
other
  in vitro hydrolysis t½ rat hepatic microsomes: 30 min

## N[C@@H](Cc1ccc(O)cc1)C(=O)O [Tyr]
other
  in vitro hydrolysis t½ rat hepatic microsomes: 5 min

## Nc1nc2c(ncn2COCCO)c(=O)[nH]1 [acyclovir]
[1]
  bioavailability: 15-30%

## NC(=O)c1ncn([C@@H]2O[C@H](CO)[C@@H](O)[C@H]2O)n1 [ribavirin]
[2]; averages
  total bioavailability, average: 64%
[2]; multiple-dose
  multiple-dose half-life: 12 days
[2]; oral, within 72-80 hours
  portion of drug excreted in urine as intact drug or as metabolites: approx. 53%
[2]; range
  bioavailability (low and variable): 33-69%
[2]; single oral dose, within 72 hours
  portion of a single oral dose excreted in feces: Approximately 15%
[3]
  teratogenic and/or embryocidal effects: Significant teratogenic and/or embryocidal effects

## CC(C)[C@H](N)C(=O)OCCOCn1cnc2c(=O)[nH]c(N)nc21 [valacyclovir]
[1]
  bioavailability: 54%
